Laboratory results reported in US5455249A, “Phosphorylcarbamates of rapamycin and oxime derivatives thereof” (priority 1994, dated 1995).
Values joined by “and” are separate entries in the source; they are usually repeats but may differ in a detail not shown here. Identical values can stand only once.

Legend:
[1] = tested on: lymphocyte (thymocyte / T-cell) proliferation; assay: Comitogen-induced thymocyte proliferation procedure (LAF); type: cell-based, normal BALB/c mice; conditions: for inhibition at 0.1 µM / IC50: Mus musculus; for inhibition at 0.1 µM: T-cell, read-out: % Inhib. (percent inhibition of T-cell proliferation at 0.1 μM); for IC50: Thymocyte, thymus cells of BALB/c mice cultured 72 hours with PHA and IL-1, tritiated thymidine pulse during last six hours; for LAF (ratio) compared with rapamycin: >1 means test compound inhibits thymocyte proliferation more than rapamycin
Experimental: (§1) Immunosuppressive activity for representative compounds of this invention was evaluated in an in vitro standard pharmacological test procedure to measure lymphocyte proliferation (LAF) and in an in vivo standard pharmacological test procedure which evaluated the survival time of a pinch skin graft.
The comitogen-induced thymocyte proliferation procedure (LAF) was used as an in vitro measure of the immunosuppressive effects of representative compounds. Briefly, cells from the thymus of normal BALB/c mice are cultured for 72 hours with PHA and IL-1 and pulsed with tritiated thymidine during the last six hours. Cells are cultured with and without various concentrations of rapamycin, cyclosporin A, or test compound. Cells are harvested and incorporated radioactivity is determined. Inhibition of lymphoproliferation is assessed as percent change in counts per minute from non-drug treated controls. For each compound evaluated, rapamycin was also evaluated for the purpose of comparison. An IC50 was obtained for each test compound as well as for rapamycin. […] The results obtained are provided as an IC50 and as the percent inhibition of T-cell proliferation at 0.1 μM. The results obtained for the representative compounds of this invention were also expressed as a ratio compared with rapamycin. A positive ratio indicates immunosuppressive activity. […] Calculation of the ratio is shown below. [formula]

[2] = tested on: pinch skin graft; assay: Pinch skin graft survival time; type: in vivo, male BALB/c donors, male C3H(H-2K) recipients; conditions: 4 mg/kg, intraperitoneally or orally; untreated controls rejected within 6-7 days
Experimental: as §1
Representative compounds of this invention were also evaluated in an in vivo test procedure designed to determine the survival time of pinch skin graft from male BALB/c donors transplanted to male C3 H(H-2K) recipients. The method is adapted from Billingham R. E. and Medawar P. B., J. Exp. Biol. 28:385-402, (1951 ). Briefly, a pinch skin graft from the donor was grafted on the dorsum of the recipient as a allograft, and an isograft was used as control in the same region. The recipients were treated with either varying concentrations of test compounds intraperitoneally or orally. Rapamycin was used as a test control. Untreated recipients serve as rejection control. The graft was monitored daily and observations were recorded until the graft became dry and formed a blackened scab. This was considered as the rejection day. The mean graft survival time (number of days±S.D.) of the drug treatment group was compared with the control group. […] Results are expressed as the mean survival time in days. Untreated (control) pinch skin grafts are usually rejected within 6-7 days. The results shown in Table 1 are based on a dose of 4 mg/kg of test compound. A survival time of 12.0 ±1.7 days was obtained for rapamycin at 4 mg/kg.

[3] = alone or in combination with picibanil; cited from earlier work
[4] = tested on: Candida albicans; conditions: in vitro and in vivo; cited from earlier work
[5] = tested on: formation of IgE-like antibodies; conditions: in vivo; cited from earlier work
[6] = tested on: adjuvant arthritis model, a model for rheumatoid arthritis; conditions: in vivo; cited from earlier work
[7] = tested on: experimental allergic encephalomyelitis model, a model for multiple sclerosis; conditions: in vivo; cited from earlier work

Structure (SMILES) | inhibition at 0.1 µM [1] | IC50 [1] | LAF (ratio) compared with rapamycin [1] | Skin Graft mean survival time (days ± SD) [2] | antitumor activity [3] | antifungal activity [4] | inhibition of the formation of IgE-like antibodies [5] | effect in the adjuvant arthritis model [6] | effect in the experimental allergic encephalomyelitis model [7]
CCOP(=O)(NC(=O)O[C@@H]1CC[C@@H](C[C@@H](C)[C@@H]2CC(=O)[C@H](C)/C=C(\C)[C@@H](O)[C@@H](OC)C(=O)[C@H](C)C[C@H](C)/C=C/C=C/C=C(\C)[C@@H](OC)C[C@@H]3CC[C@@H](C)[C@@](O)(O3)C(=O)C(=O)N3CCCC[C@H]3C(=O)O2)C[C@H]1OC)OCC [Example 2, Rapamycin 42-ester with (diethoxyphosphoryl)carbamic acid] | 95% | 10 nM | 0.44 | 10.2 ± 0.4 days and 10.0 ± 0.6 days |  |  |  |  | 
CCOP(=O)(NC(=O)O[C@@H]1/C(C)=C/[C@@H](C)C(=O)C[C@@H]([C@H](C)C[C@@H]2CC[C@@H](OC(=O)NP(=O)(OCC)OCC)[C@H](OC)C2)OC(=O)[C@@H]2CCCCN2C(=O)C(=O)[C@]2(O)O[C@@H](CC[C@H]2C)C[C@H](OC)/C(C)=C/C=C/C=C/[C@@H](C)C[C@@H](C)C(=O)[C@@H]1OC)OCC [Example 1, Rapamycin 31,42-diester with (diethoxyphosphoryl)carbamic acid] | 72% | 90.9 nM | 0.04 | 7.2 ± 0.4 days |  |  |  |  | 
CCOP(=O)(NC(=O)O[C@@H]1CC[C@@H](C[C@@H](C)[C@@H]2C/C(=N\OC)[C@H](C)/C=C(\C)[C@@H](O)[C@@H](OC)C(=O)[C@H](C)C[C@H](C)/C=C/C=C/C=C(\C)[C@@H](OC)C[C@@H]3CC[C@@H](C)[C@@](O)(O3)C(=O)C(=O)N3CCCC[C@H]3C(=O)O2)C[C@H]1OC)OCC [Example 3, Rapamycin 42-ester with (diethoxyphosphoryl)carbamic acid (E)-27-O-(methyl)oxime] | 51% | 99 nM | 0.05 |  |  |  |  |  | 
CCOP(=O)(NC(=O)O[C@@H]1CC[C@@H](C[C@@H](C)[C@@H]2C/C(=N/OC)[C@H](C)/C=C(\C)[C@@H](O)[C@@H](OC)C(=O)[C@H](C)C[C@H](C)/C=C/C=C/C=C(\C)[C@@H](OC)C[C@@H]3CC[C@@H](C)[C@@](O)(O3)C(=O)C(=O)N3CCCC[C@H]3C(=O)O2)C[C@H]1OC)OCC [Example 4, Rapamycin 42-ester with (diethoxyphosphoryl)carbamic acid (Z)-27-O-(methyl)oxime] | 82% | 41.9 nM | 0.01 |  |  |  |  |  | 
CO[C@H]1C[C@@H]2CC[C@@H](C)[C@@](O)(O2)C(=O)C(=O)N2CCCC[C@H]2C(=O)O[C@H]([C@H](C)C[C@@H]2CC[C@@H](O)[C@H](OC)C2)CC(=O)[C@H](C)/C=C(\C)[C@@H](O)[C@@H](OC)C(=O)[C@H](C)C[C@H](C)/C=C/C=C/C=C/1C [rapamycin] |  | 0.4 to 5.1 nM |  | 12.0 ± 1.7 days | antitumor activity | antifungal activity, particularly against Candida albicans, both in vitro and in vivo | effectively inhibited the formation of IgE-like antibodies | effective | effective
